Values quoted from earlier work, collected in US20110052581A1 (Poniard Pharmaceuticals Inc., priority 2008, published 2011).

System: patients with advanced colorectal cancer
Conditions: single agent therapy

Row | SMILES | median survival [months] | progression-free survival (median) [months] | response rate [%]
1 | CCc1c2c(nc3ccc(OC(=O)N4CCC(N5CCCCC5)CC4)cc13)-c1cc3c(c(=O)n1C2)COC(=O)[C@]3(O)CC [irinotecan] | ~12 | 4.3 | 18
2 | O=C1[O][Pt]2([NH][C@@H]3CCCC[C@H]3[NH]2)[O]C1=O [oxaliplatin] | – | 4.0 | 12
